The test system of series [1] is X4 recombinant HIV (NL4.3-Ren). Conditions: for SI: selectivity index (CC50/IC50): CC50 MT-2 / IC50 HIV NL4.3-Ren.
Another series is described as follows: in vitro. To be noted: human.
For series [2], the system named is X4 recombinant HIV (NL4.3-Ren). Kind of series: microbe, parasite or virus in culture.
For series [3], the system named is HIV transcription (pNL4.3-Luc). Kind of series: cells. It is filed as cell-based, HIV-1. To be noted: for IC50: Human immunodeficiency virus 1, MT2, 48 h, read-out: IC50 viral transcription; for SI HIV transcription/HIV infection (specificity index): IC50 transcription / IC50 HIV infection; for effect on HIV transcription (in words): MT-2 cells transfected with NL4.3-Luc, 0.7 to 100 μM.

The subject of series [4] is VSV pseudotyped HIV (VSV-HIV).
For series [5], the system named is VSV pseudotyped HIV (VSV-HIV). Kind of series: microbe, parasite or virus in culture. Conditions: Vesicular stomatitis virus, MT2, 48 h, read-out: IC50 VSV-HIV.
The mark [6] stands for this setting: Human immunodeficiency virus 1, MT2, 48 h, read-out: IC50 (CI95%; R^2) anti-HIV activity, MT-2 cells, NL4.3-Ren, 48 h, mean of at least three independent experiments.
Where [7] appears, read: Human immunodeficiency virus 1, MT2, read-out: IC50 HIV, MT-2 cells, HIV infection, values repeated from Table 3 (more decimals).

Broadly, the IC50 is the concentration that inhibits the measured activity by half.

Where two headings read alike, the source gives them in different places. Some results are limits rather than exact numbers.

Turning to `C=C1C(=O)O[C@@H]([C@@H](C)[C@]2(O)C[C@H](OC(C)=O)[C@]3(O)[C@@H]4C[C@H]5O[C@]56CC=CC(=O)[C@]6(C)[C@H]4CC[C@@]32C)C[C@@]1(C)O` [Compound 1, 15α-acetoxy-5β,6β-epoxy-14β,17β,24β-trihydroxy-1-oxo-witha-2,25(27)-dien-26,22-olide], the “SI: selectivity index (CC50/IC50)” value in series [1] is more than 8. Also, in “in vitro”, the CC50 was more than 100 µM. In series [2] (setting [6]), the IC50 amounted to 12.4 µM.

For the molecule `CC(=O)O[C@H]1C[C@H]([C@H](C)[C@H]2CC(C)=C(C)C(=O)O2)[C@@]2(C)CC[C@H]3[C@@H](C[C@@H](O)[C@@]4(O)CC=CC(=O)[C@]34C)[C@@]12O` [Compound 10, physagulin J], the “SI: selectivity index (CC50/IC50)” value in series [1] is given as more than 3.1. Further, the CC50 in the series “in vitro” is more than 100 µM. Further, the IC50 in series [2] (setting [6]) is 32.7 µM.

For the molecule `CC(=O)O[C@H]1C=C([C@H](C)[C@H]2CC(C)=C(C)C(=O)O2)[C@@]2(C)CC[C@H]3[C@@H](C[C@@H](O)[C@]45C=C[C@H](OO4)C(=O)[C@]35C)[C@@]12O` [Compound 3, 15α-acetoxy-6β,14β-dihydroxy-1-oxo-2α,5α-dioxy-witha-3,16,24-trien-26,22-olide], in series [1], the “SI: selectivity index (CC50/IC50)” value is more than 1.3. Moreover, in the series “in vitro”, the CC50 was more than 100 µM. Also, in series [2] (setting [6]), the IC50 turned out to be 76.1 µM.

Consider `CC(=O)O[C@H]1C=C([C@H](C)[C@H]2CC(C)=C(C)C(=O)O2)[C@@]2(C)CC[C@H]3[C@@H](C[C@@H](O)[C@@]4(Cl)CC=CC(=O)[C@]34C)[C@]12O` [Compound 9, physagulin B], for which the “SI: selectivity index (CC50/IC50)” value in series [1] was more than 11.2. This molecule also had a CC50 in the series “in vitro” of more than 100 µM. In addition, in series [2] (setting [6]), the IC50 was determined as 8.9 µM.

In the case of `CC(=O)O[C@H]1C=C([C@H](C)[C@H]2CC(C)=C(C)C(=O)O2)[C@@]2(C)CC[C@H]3[C@@H](C[C@@H](O)[C@@]4(O)CC=CC(=O)[C@]34C)[C@]12O` [Compound 8, withaminimin], in series [1], the “SI: selectivity index (CC50/IC50)” value was more than 1.5. Also, the CC50 in the series “in vitro” is more than 100 µM. Besides, in series [2] (setting [6]), the IC50 was 67.9 µM.

Turning to `CC(=O)O[C@H]1[C@@H]2O[C@]2([C@H](C)[C@H]2CC(C)=C(C)C(=O)O2)[C@@]2(C)CC[C@H]3[C@@H](C[C@H]4O[C@]45[C@@H](O)C=CC(=O)[C@]35C)[C@@]12O` [Compound 13, physagulin F], the IC50 in series [3] was 1.14 µM; in series [2] (setting [6]), less than 2 µM; in series [2] (setting [7]) it was 1.01 µM; in series [5] it was 2.67 µM. For the same molecule, the “SI HIV transcription/HIV infection (specificity index)” value in series [3] is reported as 1.13. The “effect on HIV transcription (in words)” value in series [3] is on record as “inhibited HIV transcription”. Moreover, the “SI: selectivity index (CC50/IC50)” value in series [1] was determined as 15.5. The “SI VSV-HIV/HIV (specificity index)” value in series [4] was found to be 2.66. This molecule also yielded a CC50 in the series “in vitro” of 15.2 µM.

As for enfuvirtide, the IC50 in series [1] (read-out: IC50 HIV, MT-2 cells, HIV infection, values repeated from Table 3 (more decimals)) was determined as 0.015 µM. For the same molecule, in series [4], the “activity as VSV-HIV inhibitor (in words)” value is recorded as “not active”. In series [4] (VSV pseudotyped (VSV-, 48 h)), the IC50 is more than 1 µM and the “SI VSV-HIV/HIV (specificity index)” value was more than 66.67.

For the molecule `CC(=O)O[C@H]1[C@@H]2O[C@]2([C@H](C)[C@H]2CC(C)=C(C)C(=O)O2)[C@@]2(C)CC[C@H]3[C@@H](C[C@@H](O)[C@@]4(O)CC=CC(=O)[C@]34C)[C@@]12O` [Compound 12, physagulin C], the “SI: selectivity index (CC50/IC50)” value in series [1] is more than 4.7. This molecule registered a CC50 in “in vitro” of more than 100 µM. For the same molecule, in series [2] (setting [6]), the IC50 came out at 21.1 µM.

With `C[C@H](Cn1cnc2c(N)ncnc21)OCP(=O)(O)O` [TFV, tenofovir, reference compound], the CC50 in “in vitro” is more than 100 µM. The IC50 in series [2] (setting [6]) came to 1.7 µM; in series [2] (setting [7]), 1.69 µM.

As to `CC(=O)O[C@H]1[C@@H]2O[C@]2([C@H](C)[C@H]2CC(C)=C(C)C(=O)O2)[C@@]2(C)CC[C@H]3[C@@H](C[C@@H](O)[C@]45C=C[C@H](OO4)C(=O)[C@]35C)[C@@]12O` [Compound 4, 15α-acetoxy-16β,17β-epoxy-6β,14β-dihydroxy-1-oxo-2α,5α-dioxy-witha-3,24-dien-26,22-olide], in series [1], the “SI: selectivity index (CC50/IC50)” value was more than 1.4. Also, in the series “in vitro”, the CC50 is more than 100 µM. The half-maximal inhibitory concentration (IC50) in series [2] (setting [6]) turned out to be 72.7 µM.

Molecule `CC(=O)O[C@H]1C[C@@](O)([C@H](C)[C@H]2CC(C)=C(C)C(=O)O2)[C@@]2(C)CC[C@H]3[C@@H](C[C@H]4O[C@]45CC=CC(=O)[C@]35C)[C@@]12O` [Compound 5, physagulide I] returned a CC50 in “in vitro” of more than 100 µM. The IC50 in series [2] (setting [6]) is more than 100 µM.

As for `C=C1C(=O)O[C@@H]([C@@H](C)[C@]2(O)C[C@H](OC(C)=O)[C@]3(O)[C@@H]4C[C@H]5O[C@]56CC=CC(=O)[C@]6(C)[C@H]4CC[C@@]32C)C[C@]1(C)O` [Compound 2, 15α-acetoxy-5β,6β-epoxy-14β,17β,24α-trihydroxy-1-oxo-witha-2,25(27)-dien-26,22-olide], the “SI: selectivity index (CC50/IC50)” value in series [1] is more than 5.3. For the same molecule, the CC50 in “in vitro” was more than 100 µM. Moreover, the IC50 in series [2] (setting [6]) came out at 18.7 µM.

With `CC(=O)O[C@H]1C=C([C@H](C)[C@H]2CC(C)=C(C)C(=O)O2)[C@@]2(C)CC[C@H]3[C@@H](C[C@H]4O[C@]45CC=CC(=O)[C@]35C)[C@@]12O` [Compound 7, physagulin A], the IC50 is 1.97 µM in series [3], less than 2 µM in series [2] (setting [6]), 1.94 µM in series [2] (setting [7]) and 3.2 µM in series [5]. The “SI HIV transcription/HIV infection (specificity index)” value in series [3] is on record as 1.02. Moreover, the “effect on HIV transcription (in words)” value in series [3] is “inhibited HIV transcription”. Also, the “fold more potent (antiviral effect) than 17β-hydroxy-withanolide 5” value in series [1] (IC50 ratio versus compound 5) was more than 50 fold. Moreover, the “fold more potency (anti-HIV) than dihydroxy compound 8” value in series [1] (IC50 ratio versus compound 8) was 35.7 fold. Moreover, in series [1] (IC50 ratio versus compound 9), the “fold more potency (anti-HIV) than halohydrin 9” value was 4.7 fold. Also, the “SI VSV-HIV/HIV (specificity index)” value in series [4] was 1.64. The same molecule yielded a CC50 in the series “in vitro” of 16 µM.

These data come from PMC8946265, “Withanolide-Type Steroids from Physalis nicandroides Inhibit HIV Transcription” (Journal of Natural Products, 2021).
